Measurements: PubChem BioAssay AID1035470 (Broad Institute, 2014)
Inconclusive results are not listed. Activity calls are given as the source filed them.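 Rule for the calls: active = compound lowering the normal-ribosome reporter at least twice as much as the humanized-ribosome reporter, growth loss under a set limit; inconclusive = no clear call, values can overlap the other calls; inactive = the rest.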

Tested on: E. coli WT-GFP vs G2058-humanized RFP, fluorescence, 24 h
Assay: E. coli strain growth, wild-type against G2058 humanized RFP mutant – G2058 mutant RFP vs wild-type GFP, cherry-pick, two tests, dose response (AID 1035470)
[1] = E. coli WT-GFP vs G2058-humanized RFP mixed culture, total growth OD600, 24 h
[2] = measured here: G2058 humanized mutant RFP growth

Structure (SMILES) | AC50 [1] [µM] | AC50 | AC50 [2] [µM]
COC(=O)CNC(=O)COC(=O)c1ccc(Cl)nc1 | > 100 | – | –
COc1ccc(C2CC(=O)Oc3cc(C)cc(C)c32)cc1 (stereo not given) | – | > 100 µM (inactive) | –
O=S(=O)(NC1c2cccc3cccc(c23)C1Sc1ncccn1)c1ccccc1 (stereo not given) | 3.21 | > 100 µM (inactive) | –
COc1cc(C2CC(=O)Oc3cc(C)cc(C)c32)cc(OC)c1OC (stereo not given) | – | > 100 µM (inactive) | –
COC(=O)c1ccc(C(=O)Nc2ccc3nc(-c4ccncc4)[nH]c3c2)cc1 | > 100 | > 100 µM (inactive) | –
COc1cc(OC)cc(C(=O)Nc2ccc(C(=O)Nc3ccccc3OC)cc2)c1 | > 100 | > 100 µM (inactive) | –
Cc1onc(-c2ccccc2Cl)c1C(=O)OCC(=O)c1ccccc1 | – | > 100 µM (inactive) | –
Oc1ccc(-c2csc(Nc3ncccn3)n2)cc1 | > 100 | – | > 100
CC(=O)CSc1ccc(-c2nc3ccccc3[nH]2)cn1 | > 100 | > 100 µM (inactive) | –
COc1ccc(NC(=O)CCC(=O)c2cccs2)cc1S(=O)(=O)Nc1ccc(Cl)cc1 | – | > 100 µM (inactive) | –
O=[N+]([O-])c1cncc([N+](=O)[O-])c1Nc1cccc(O)c1 | > 100 | > 100 µM (inactive) | –
Cc1cc(C(=O)Nc2ccc3ccccc3c2)c(C)o1 | > 100 | > 100 µM (inactive) | –
O=C(C1Cc2ccccc2CN1C(=O)c1ccccc1)N1CCN(c2ccccc2)CC1 (stereo not given) | > 100 | > 100 µM (inactive) | > 100
CC(C)C[C@H]1COc2cc(Br)ccc2S(=O)(=O)N1 | > 100 | > 100 µM (inactive) | > 100
CCOC(=O)c1[nH]c2ccccc2c1NC(=O)c1ccc(Br)o1 | > 100 | > 100 µM (inactive) | –
CCN(CC(=O)Nc1ccccc1OC)CC(=O)Nc1c(Cl)ccc(C)c1Cl | > 100 | > 100 µM (inactive) | –
CCOC(=O)Cc1nnc(NC(=O)CSc2nc3ccccc3[nH]2)s1 | – | > 100 µM (inactive) | –
COC(=O)c1ccccc1NC(=O)c1ccc2c(c1)CC(C)O2 (stereo not given) | 52.3 | > 100 µM (inactive) | –
CCCCCCC(=O)N1CCCC(c2nc(-c3cccc(OC)c3)no2)C1 (stereo not given) | – | > 100 µM (inactive) | > 100
Cc1cccc(NC(=O)c2c(C)nn(-c3ccccc3)c2Cl)c1 | > 100 | – | –
CSc1nc2ccc(NS(=O)(=O)c3ccc([N+](=O)[O-])cc3)cc2s1 | > 100 | > 100 µM (inactive) | > 100
COc1ccc(OC)c(-c2csc(NC(=O)C3COc4ccccc4O3)n2)c1 (stereo not given) | > 100 | > 100 µM (inactive) | –

Structure (SMILES) | AC50 [1] [µM] | AC50 | AC50 [2] [µM]
COc1ccccc1OCC(=O)Nc1ccc(S(=O)(=O)N2CCCCCC2)cc1 | > 100 | > 100 µM (inactive) | –
Cc1ccc(C(=O)Nc2ccc3ncccc3c2)cc1 | – | > 100 µM (inactive) | –
Cc1cc(C)c(S(=O)(=O)NCCOc2ccccc2)c(C)c1-n1cnnn1 | – | > 100 µM (inactive) | –
CCOc1ccccc1C(=O)OCC(=O)NCCc1ccc(OC)cc1 | 50.9 | > 100 µM (inactive) | –
O=C(Nc1cccc(O)c1)c1cccc(S(=O)(=O)Nc2cccc(O)c2)c1 | – | > 100 µM (inactive) | –
Cc1nc(N2CCC(C)CC2)c(C#N)c(C)c1[N+](=O)[O-] | – | > 100 µM (inactive) | –
O=C(COC(=O)c1ccc([N+](=O)[O-])o1)NC12CC3CC(CC(C3)C1)C2 | – | > 100 µM (inactive) | –
O=C(CCNC(=O)c1ccco1)Nc1cccc(Br)c1 | > 100 | – | –
O=C(Nc1cccnc1)c1ccc([N+](=O)[O-])o1 | > 100 | > 100 µM (inactive) | –
O=C(Nc1ccc2nc(-c3ccccc3)[nH]c2c1)c1cccs1 | 51.4 | > 100 µM (inactive) | –
Cc1cc(C(=O)Nc2cccc3c2O[C@H](CN(C)S(=O)(=O)c2ccc(Cl)cc2)[C@H](C)CN([C@H](C)CO)C3=O)n(C)n1 | – | > 100 µM (inactive) | 32.9
CCOC(=O)c1c(CS(=O)(=O)c2ccccc2)n(C)c2cc(Br)c(O)cc12 | – | > 100 µM (inactive) | –
CCCC(=O)Nc1cccc(C(=O)Nc2ccccc2OCC)c1 | – | > 100 µM (inactive) | –
CCOc1ccccc1NC(=O)c1cc(SC)ccc1Cl | > 100 | > 100 µM (inactive) | –
CCn1ccnc1CN1CCCC(C(=O)c2ccc3cc(OC)ccc3c2)C1 (stereo not given) | > 100 | > 100 µM (inactive) | –
O=C(O)c1ccccc1NC(=O)C(c1ccccc1)c1ccccc1 | – | > 100 µM (inactive) | –
O=C(CCCSc1nc2ccccc2s1)NCc1ccc2c(c1)OCO2 | – | > 100 µM (inactive) | –
COc1ccc(-c2nc(NC(C)=O)sc2-c2ccccc2)cc1 | – | > 100 µM (inactive) | –
Cc1ccc(C)c(-c2[nH]ncc2CN2CCCC(CO)(Cc3ccccc3C)C2)c1 (stereo not given) | > 100 | > 100 µM (inactive) | –
CC(=O)Nc1ccc(OCc2nnc(-c3ccccc3)o2)cc1 | > 100 | > 100 µM (inactive) | –
O=C(CC1C(=O)N(c2ccc(Cl)cc2)C(=S)N1CCc1ccncc1)Nc1ccc(F)cc1 (stereo not given) | 41.8 | > 100 µM (inactive) | –
Brc1cc2c(cc1Br)OCCOCCOCCO2 | > 100 | > 100 µM (inactive) | > 100

Structure (SMILES) | AC50 [1] [µM] | AC50 | AC50 [2] [µM]
CN(C)S(=O)(=O)c1ccc(Cl)c(C(=O)OCC(=O)NC(=O)c2cccn2C)c1 | – | > 100 µM (inactive) | –
CCC1(C(=O)OC)CCc2c(cc(OC)c3ccccc23)C1=O (stereo not given) | – | > 100 µM (inactive) | –
CCCCCc1nnc(NC(=O)C2COc3ccccc3O2)s1 (stereo not given) | > 100 | > 100 µM (inactive) | 23.2
C=CCn1c(C)cc(C(=O)CSc2nnc(C3CC3)n2C2CC2)c1C | – | – | 48.6
O=C(Nc1ccc(F)c(Cl)c1)C1CC2CCC1C2 (stereo not given) | – | > 100 µM (inactive) | –
CC(=O)N1CCOc2ccc(S(=O)(=O)N(C)c3ccc(C)cc3)cc21 | – | > 100 µM (inactive) | –
COc1ccc(C(=O)CSc2nc3ccccc3n2CC(=O)c2ccccc2)cc1 | – | > 100 µM (inactive) | > 100
Brc1ccccc1Cn1c(-c2cncs2)nc2ccccc21 | > 100 | > 100 µM (inactive) | > 100
COc1ccc(OC)c(S(=O)(=O)Nc2cccc3ccc(O)cc23)c1 | – | > 100 µM (inactive) | –
CC(=O)c1ccc(OCC(=O)Nc2ccc3c(c2)CCC3)cc1 | > 100 | > 100 µM (inactive) | –
CSc1ccccc1OCc1cc(C(=O)N[C@H]2CCCCNC2=O)no1 | > 100 | > 100 µM (inactive) | –
O=C(O)CC1(CC(=O)Nc2ccc3sccc3c2)CCCCC1 | – | > 100 µM (inactive) | –
COc1ccc(-n2c(-c3ccc(C)cc3)nc3ccccc3c2=O)cc1 | – | > 100 µM (inactive) | –
O=C(NCCc1ccccn1)c1cccc(S(=O)(=O)N2CCc3ccccc32)c1 | > 100 | > 100 µM (inactive) | –
CCOc1ccc2oc(-c3ccccc3)c(C(=O)N(C)C)c2c1 | > 100 | > 100 µM (inactive) | –
COC(=O)C1CCN(C(=O)c2ccc(OC)c(S(=O)(=O)N3CCCc4ccccc43)c2)CC1 | – | > 100 µM (inactive) | –
O=C(O)CC(CC(=O)Nc1ccc(Oc2ccccc2)cc1)c1ccccc1 (stereo not given) | – | > 100 µM (inactive) | –
Cc1ccc(OCCCC(=O)NC(C)c2ccccc2)c(C)c1 (stereo not given) | – | > 100 µM (inactive) | –
COc1cc2c(c(OC)c1OC)C(c1ccc3c(c1)OCO3)CC(=O)O2 (stereo not given) | > 100 | > 100 µM (inactive) | –
CCn1c(SCC(=O)Nc2ccc(OC)cc2)nc2nc3c(cc2c1=O)CCCC3 | 47.7 | – | –
O=C(Nc1cccc(Oc2ccc3c(c2)C(=O)NC3=O)c1)c1cccs1 | – | > 100 µM (inactive) | –
CC(CCc1ccccc1)NC(=O)CCC1CCCC1 (stereo not given) | > 100 | – | –

Structure (SMILES) | AC50 [1] [µM] | AC50 | AC50 [2] [µM]
Cc1cc(C)c(OCCN(C)Cc2ccccc2)c(Br)c1 | > 100 | – | –
CC(=O)Nc1cccc(OCCCOc2cccc([N+](=O)[O-])c2)c1 | > 100 | > 100 µM (inactive) | –
COc1ccc(NC(=O)CSc2nnc(Cc3ccccc3)o2)c(OC)c1 | > 100 | > 100 µM (inactive) | –
CCN(CC)CC(=O)Nc1sc2c(c1C(=O)c1ccccc1OC)CCC2 | – | > 100 µM (inactive) | –
CCOC(=O)c1sc(NC(=O)CN2CCN(c3ccccc3)CC2)nc1C | > 100 | > 100 µM (inactive) | –
O=C(NCc1ccccc1Cl)[C@H]1CCCN1C(=O)[C@H]1CCCN1C(=O)c1cccc2ccccc12 | > 100 | > 100 µM (inactive) | –
Cc1cccc(-c2ccc([C@H]3[C@@H](CO)N4CCCCN(S(=O)(=O)c5ccccc5C)C[C@H]34)cc2)c1 | > 100 | – | –
COc1cc2[nH]c(=S)nc(NCCc3ccc(C)cc3)c2cc1OC | – | > 100 µM (inactive) | –
C(=C/c1nccc2c1[nH]c1ccccc12)/c1ccc2c(c1)OCO2 | – | – | > 100
O=C(CSc1nnc(-c2ccccc2F)n1C1CC1)Nc1cccnc1Cl | – | > 100 µM (inactive) | –
Cc1ccc(C)c(N2CCN(C(=O)CCS(=O)(=O)c3ccc4c(c3)oc(=O)n4C)CC2)c1 | > 100 | – | –
O=C(Nc1cccc2c1CCCC2)c1ccco1 | > 100 | > 100 µM (inactive) | –
CC(C)(C)N(Cc1ccccc1)C(=O)COC(=O)Cn1cnc2ccccc2c1=O | > 100 | – | –
O=C1c2cccc3cccc(c23)C(=O)N1c1ccccc1Cl | – | > 100 µM (inactive) | –
Cc1cc2c(sc3ccccc32)c(C)n1 | > 100 | > 100 µM (inactive) | 48.8
COc1ccc(C(=O)N(c2ccccc2)c2nccc3ccccc23)cc1OC | – | > 100 µM (inactive) | –
O=C1c2ccccc2CSc2c(O)cccc21 | – | > 100 µM (inactive) | –
N#Cc1cccc(-c2ccc3c(c2)[C@H]2[C@H](CCN2C(=O)c2ccccc2F)[C@H](CO)N3)c1 | – | > 100 µM (inactive) | –
O=C(Nc1cccc(Cl)c1)N1C[C@@H]2[C@H](c3ccccc31)[C@@H](CO)N2C(=O)c1cccnc1 | – | – | > 100
N#Cc1ccc(OCC(=O)N2CCN(S(=O)(=O)c3ccc(Cl)s3)CC2)cc1 | – | > 100 µM (inactive) | –
Cc1ccn2cc(-c3cccc(NC(=O)c4cccs4)c3)nc2c1 | > 100 | > 100 µM (inactive) | –
